# In patent EP0097071A1, “Benzhydryl sulfinylacetamide derivatives and their therapeutical use” (LABORATOIRE L. LAFON Société anonyme dite:, priority 1982, dated 1983):
# What was measured:
# SNC = test: Essential activity on the CNS (Tableau I and conclusions of the neuropsychopharmacological study); assay type: in vivo; details: in vivo
# Text: Dans le tableau I ci-après, on a consigné un certain nombre de composés selon la formule I de façon nullement limitative, en mentionnant l'activité essentielle sur le SNC.
# Les composés de formule I agissent tous sur le SNC. Les produits des exemples 1-3 et 7-8 sont des agents stimulants, en revanche les produits des exemples 4-6 sont des agents sédatifs.
# souris mâle [1] = test: Pentobarbital-induced sleep duration; assay type: in vivo
# Text: Les composés selon l'invention se distinguent du benzhydrylsulfinylacétamide (CRL 40476) précité par une différence d'action vis-à-vis du sommeil barbiturique. […]. Cette différence d'action qui est intéressante sur le plan thérapeutique est illustrée par le tableau IV
# souris mâle [2] = test: Toxicity, DL-0; assay type: in vivo; details: i.p.
# Protocol: (§1) On a résumé ci-après les résultats des essais pharmacologiques qui ont été entrepris avec les produits selon la présente addition. Dans ces essais, les produits de formule I à étudier ont été administrés par voie intrapéritonéale, en suspension dans une solution aqueuse de gomme arabique, sous un volume de 20 ml/kg chez la souris mâle et sous un volume de 5 ml/kg chez le rat mâle.
# La toxicité a été étudiée chez la souris mâle. Les résultats relatifs à la DL-0 (dose minimale non mortelle) sont donnés dans le tableau II ci-après.
# souris mâles = test: Global behaviour and reactivities, mouse; assay type: in vivo; details: souris
# Protocol: as §1
# (§2) Pour apprécier le comportement global et les réactivités, des lots de six animaux (souris mâles ou rats mâles) ont été observés avant administration de chaque produit, puis 15 min, 30 min, 1 h, 2 h, 3 h et 24 h après administration de chaque produit. Les résultats sont consignés dans le tableau III ci-après, […]
# rats mâles = test: Global behaviour and reactivities, rat; assay type: in vivo; details: 128 mg/kg i.p.
# Protocol: as §1, §2
# souris [3] = test: Interaction with apomorphine, mouse; assay type: in vivo; details: dose not stated
# Protocol: as §1
# Des lots de 6 souris par dose reçoivent le CRL 40933 0,5 h avant l'injection sous-cutanée d'apomorphine administrée à la dose de 1 ou 16 mg/kg.
# rat = test: Interaction with apomorphine, rat; assay type: in vivo; details: apomorphine 0,5 mg/kg s.c., dose not stated
# Protocol: as §1
# Le CRL 40933 est administré à des lots de 6 rats 0,5 h avant l'injection sous-cutanée de 0,5 mg/kg d'apomorphine.
# rats = test: Interaction with amphetamine (stereotypies); assay type: in vivo; details: rat; 8 mg/kg à 128 mg/kg i.p.
# Protocol: as §1
# L'amphétamine (2 mg/kg)est injectée par voie intrapéritonéale à des lots de 6 rats, 30 min après l'administration de CRL 40933.
# souris [4] = test: Interaction with reserpine; assay type: in vivo; details: 256 mg/kg i.p.
# Protocol: as §1
# Quatre heures après l'injection intrapéritonéale de 2,5 mg/kg de réserpine, des lots de 6 souris reçoivent le CRL 40933.
# souris [5] = test: Interaction with oxotremorine; assay type: in vivo
# Protocol: as §1
# Le CRL 40933 est administré à des lots de 6 souris 0,5 h avant l'injection intrapéritonéale de 0,5 mg/kg d'oxotrémorine.
# souris [6] = test: Four plates test; assay type: in vivo; details: 0,5 h after administration, dose not stated
# Protocol: as §1
# (§3) Les essais sont effectués sur des lots de 10 souris (par dose) 0,5 h après l'administration du CRL 40933.
# souris [7] = test: Traction test; assay type: in vivo; details: 0,5 h after administration, dose not stated
# Protocol: as §1, §3
# souris [8] = test: Electroshock; assay type: in vivo; details: 64 mg/kg à 256 mg/kg i.p.
# Protocol: as §1, §3
# souris [9] = test: Spontaneous motility (actimeter); assay type: in vivo
# Protocol: as §1
# Une demi-heure, après avoir reçu le CRL 40933, les souris (6 par dose, 12 témoins) sont placées en actimètre où leur motilité est enregistrée pendant 30 min.
# souris [10] = test: Intergroup aggressiveness; assay type: in vivo; details: for agressivité intergroupes (nombre de combats): dose not stated
# Protocol: as §1
# Après avoir séjourné pendant 3 semaines dans chacune des moitiés d'une cage séparées par une cloison opaque, des groupes de 3 souris reçoivent le CRL 40933. 30 min plus tard, les deux groupes d'une même cage sont réunis par retrait de la cloison et on note le nombre de combats qui surviennent en 10 min.
# souris [11] = test: Motility reduced by habituation to the enclosure; assay type: in vivo
# Protocol: as §1
# Après 18 h de séjour dans les actimètres, les souris (6 par dose, 12 témoins) reçoivent le CRL 40933. Elles sont aussitôt replacées dans leurs enceintes respectives et, 30 min plus tard, on enregistre leur motilité pendant 30 min.
# souris [12] = test: Motility reduced by hypoxic aggression (acute hypobaric anoxia); assay type: in vivo
# Protocol: as §1
# Une demi-heure après avoir reçu le CRL 40933, les souris (10 par dose, 20 témoins) sont soumises à une anoxie hypobare aiguë [dépression de 600 mm Hg (soit environ 8 x 10^4 pascals) en 90 s, puis détente de 45 s], puis elles sont placées en actimètre où leur motilité est enregistrée pendant 10 min.
# souris [13] = test: Asphyxic anoxia (gallamine triethiodide); assay type: in vivo; details: 64 mg/kg et 256 mg/kg i.p.
# Protocol: as §1
# Des lots de 10 souris par dose reçoivent le CRL 40933 30 min avant l'administration intrapéritonéale de 32 mg/kg de triiodoéthylate de gallamine.
# souris [14] = test: Interaction with barbital (sleep); assay type: in vivo; details: 256 mg/kg i.p.
# Protocol: as §1
# Une demi-heure après l'administration de CRL 40933, des lots de 10 souris reçoivent une injection intrapéritonéale de 220 mg/kg de barbital.
# souris [15] = test: Behavioural despair (forced immersion); assay type: in vivo; details: souris; dès la dose de 16 mg/kg i.p.
# Protocol: as §1
# Une demi-heure après avoir reçu le CRL 40933, des lots de 10 souris par dose sont placés dans un espace restreint rempli d'eau sur une hauteur de 6 cm; on note la durée d'immobilité entre la 2e et la 6e minute suivant l'immersion.
# homme = test: Clinical trials; assay type: in vivo
# Text: Les études cliniques ont porté sur les troubles de la vigilance, de l'éveil et des états confusionnels, d'une part, et sur les troubles de l'affectivité, du contact et des dépressions, d'autre part.
# Solubility = details: water
compound,measurement,setting,value
CC(C)NC(=O)C[S+]([O-])C(c1ccccc1)c1ccccc1 (centres unmarked) [Exemple 2],Activité sur le SNC,SNC,stimulant
same,conclusion of the neuropsychopharmacological study: main type of CNS effect,SNC,agent psychotrope
same,Action sur la durée du sommeil induit par le pentobarbital (50 mg/kg i.p.) effet,"souris mâle [1]; dose 256 mg/kg i.p., 0,5 h before pentobarbital",(a)
same,DL-O,souris mâle [2],supérieure à 512 mg/kg
same,hypothermie modérée,"souris mâles; 256 mg/kg i.p., pendant 0,5 h",-1 °C
same,Observations (comportement global et réactivités),souris mâles; 512 mg/kg i.p.,"respiration déprimée, dyspnée, sédation, diminution de la réactivité au toucher, puis excitation au bout de 3 h"
same,mortalité,souris mâles; 512 mg/kg i.p.,pas de mortalité
same,Observations (comportement global et réactivités),souris mâles; 128 mg/kg i.p.,"sédation, puis excitation 3 h après admi-nistration"
same,Observations (comportement global et réactivités),souris mâles; 256 mg/kg i.p.,"sédation pendant 0,5 h avec diminution de la fréquence respiratoire - hyporéactivité au toucher pendant 2 h - hypothermie modérée (-1°C) pendant 0,5 h - excitation 3 h après administration"
same,Observations (comportement global et réactivités),rats mâles,mydriase pendant 3 h
same,comportement de verticalisation et stéréotypies (apomorphine),souris [3],laisse inchangés
same,hypothermie produite par l'apomorphine,souris [3],laisse inchangés
same,stéréotypies induites par l'apomorphine,rat,ne sont pas modifiées
same,stéréotypies amphétaminiques,rats,semble potentialiser faiblement
same,ptôsis réserpinique,souris [4],diminue très modérément
same,"signes de stimulation cholinergique périphérique, notamment la défécation",souris [5]; 64 mg/kg à 256 mg/kg i.p.,semble entraîner une diminution
same,intensité des tremblements provoqués par l'oxotrémorine,souris [5]; 256 mg/kg i.p.,semble diminuer modérément
same,action hypothermisante de l'oxotrémorine,souris [5]; dose not stated,ne modifie pratiquement pas
same,nombre de passages punis,souris [6],n'entraîne pas d'augmentation
same,déficit moteur (traction),souris [7],ne provoque pas de déficit moteur majeur
same,effets convulsivants de l'électrochoc,souris [8],s'oppose
same,motilité spontanée,souris [9]; 256 mg/kg i.p.,hypermotilité nette
same,agressivité intergroupes (nombre de combats),souris [10],diminue très modérément
same,activité chez la souris habituée à son enceinte,"souris [11]; 4 mg/kg, 64 mg/kg et 256 mg/kg i.p.",semble provoquer une reprise de l'activité
same,reprise de l'activité chez la souris habituée à son enceinte,souris [11]; intermediate dose 16 mg/kg i.p.,n'est pas observé
same,récupération motrice (motilité réduite par agression hypoxique),souris [12]; 64 mg/kg et surtout 256 mg/kg i.p.,amélioration nette
same,apparition des convulsions anoxiques provoquées par le triiodoéthylate de gallamine,souris [13],retarde modérément
same,durée du sommeil barbiturique,souris [14],diminue nettement
same,durée d'immobilité,souris [15],diminue nettement
same,action contre l'énurésie,homme,agissent efficacement
same,résultats en tant que médicaments de l'éveil,"homme; notamment vieillard, gélules ou comprimés de 100 à 200 mg, 1 à 3 par jour",excellents résultats
"O=C(C[S+]([O-])C(c1ccccc1)c1ccccc1)N1CCCCC1 (centres unmarked) [Exemple 5, N-(benzhydrylsulfinylacétyl)-pipéridine]",Activité sur le SNC,SNC,sédatif
same,conclusion of the neuropsychopharmacological study: main type of CNS effect,SNC,type sédatif
same,Action sur la durée du sommeil induit par le pentobarbital (50 mg/kg i.p.) effet,"souris mâle [1]; dose 128 mg/kg i.p., 0,5 h before pentobarbital",(a)
same,DL-O,souris mâle [2],supérieure à 1024 mg/kg
same,motilité spontanée,"souris [9]; all doses used (8 mg/kg à 256 mg/kg), intensity increasing with dose",hypomotilité
same,agressivité intergroupes,souris [10]; 32 mg/kg i.p.,diminue de moitié
same,agressivité intergroupes (nombre de combats),souris [10],effet antiagressif
same,mobilité réduite (habituation à l'enceinte),"souris [11]; souris, dose not stated",n'agit pas nettement
same,mobilité réduite (agression hypoxique),souris [12]; dose not stated,n'agit pas nettement
same,solubility,Solubility,< 1000 µg/mL
